{"source": "patent US11123329B1", "about": "“Use of angiotensin II type 2 receptor agonist” (Vicore Pharma AB, priority 2020, dated 2021)", "key": {"AT2R": {"system": "AT2R", "conditions": "in particular in inflamed lung tissue; cited from earlier work"}, "ACE2": {"system": "ACE2", "conditions": "in particular in inflamed lung tissue; cited from earlier work"}, "acute lung injury": {"system": "acute lung injury", "conditions": "model of acute lung injury; cited from earlier work"}, "E-cadherin expression": {"system": "E-cadherin expression", "conditions": "SAEMyoF", "from_the_text": "The effect of C21 on E-cadherin expression was studied using the human disease model BioMAP® platform (fibrosis panel) with ELISA-based protein biomarker detection in a human small airway epithelial cell plus lung fibroblast (SAEMyoF) assay (a service provided by Eurofins DiscoverX Corporation, Fremont, Calif., USA)."}, "[1]": {"conditions": "end of treatment, 100 mg b.i.d. oral, 7 days on top of standard of care, n=51"}}}
{"compound": "CCCCOC(=O)NS(=O)(=O)c1sc(CC(C)C)cc1-c1ccc(Cn2ccnc2)cc1", "note": "[Compound C21, N-butyloxycarbonyl-3-(4-imidazol-1-ylmethylphenyl)-5-isobutylthiophene-2-sulfonamide]", "values": [{"measurement": "level of circulating biomarker of inflammation CRP, versus placebo", "setting": "SARS-CoV-2 infection; 100 mg b.i.d., 7 days", "value": "no significant differences"}, {"measurement": "level of circulating biomarker of inflammation IL-6, versus placebo", "setting": "SARS-CoV-2 infection; 100 mg b.i.d., 7 days", "value": "no significant differences"}, {"measurement": "level of circulating biomarker of inflammation TNF, versus placebo", "setting": "SARS-CoV-2 infection; 100 mg b.i.d., 7 days", "value": "no significant differences"}, {"measurement": "tolerability", "setting": "SARS-CoV-2 infection; 100 mg b.i.d., 7 days, COVID-19 patients", "value": "well tolerated"}, {"measurement": "deaths", "setting": "SARS-CoV-2 infection; 100 mg b.i.d., 7 days, n=51", "value": 1}, {"measurement": "number of patients needing mechanical ventilation", "setting": "SARS-CoV-2 infection; 100 mg b.i.d., 7 days, n=51", "value": 1}, {"measurement": "total number of reported adverse events", "setting": "SARS-CoV-2 infection; 100 mg b.i.d., 7 days, n=51", "value": 64}, {"measurement": "beneficial effect on need of oxygen supply versus placebo", "setting": "SARS-CoV-2 infection; 100 mg b.i.d., 7 days, C21 n=51 vs placebo n=56", "value": "statistically significant at the predefined 10% level"}, {"measurement": "number of patients that needed oxygen supply", "setting": "SARS-CoV-2 infection; [1]", "value": 14}, {"measurement": "patients that needed oxygen supply, share of group", "setting": "SARS-CoV-2 infection; [1]", "value": 27, "unit": "%"}, {"measurement": "expression of AT2R", "setting": "AT2R", "value": "increase the expression"}, {"measurement": "expression of ACE2", "setting": "ACE2", "value": "increase the expression"}, {"measurement": "pulmonary gas exchange or other relevant beneficial clinical effects", "setting": "acute lung injury", "value": "not to improve"}, {"measurement": "reduction of E-cadherin at lower concentrations", "setting": "E-cadherin expression; 0.37, 1.1 and 3.3 μM of C21", "value": "did not reduce E-cadherin"}, {"measurement": "effect on E-cadherin levels", "setting": "E-cadherin expression; 0.37-10 μM", "value": "dose-dependently reduced"}]}
